Experimental data from publication PMC6054517, “Design and synthesis of novel oridonin analogues as potent anticancer agents” (Journal of Enzyme Inhibition and Medicinal Chemistry, 2018).
Where two headings read alike, the source gives them in different places.

Experiments:
AGS = assay: MTT antiproliferative assay, AGS cells; assay type: cell-based, human; conditions: for IC50: MTT, 48 h, means ± SD, n = 3
Text: (§1) Human gastric cancer (AGS), human differentiation of advanced gastric cancer (MGC803), human colorectal cancer (HCT116), human lung cancer (A549), human hepatocellular carcinoma (Bel7402) and human cervical cancer (HeLa) cell lines were obtained from the State Key Laboratory of Natural Resources and Functional Molecules of the Changbai Mountain (Yanbian University) and maintained in Dulbecco’s modified Eagle’s medium and RPMI Media 1640 (RPMI1640), supplemented with 10% foetal bovine serum 100 IU/ml penicillin, […] and 2 mmol/l L-glutamine (Sigma) at 37 °7 in a humidified atmosphere containing 5% CO2.
(§2) All six human cancer cell lines and normal L02 cells were seeded in 96-well plates at the appropriate densities to ensure exponential growth throughout the experimental period (9 × 10^3 cells per well) and then allowed to adhere for 24 h. The cells were then treated for 48 h with four serial dilutions (100, 50, 10, and 1 µM) of each compound. 5-Fluorouracil (5-FU) was used as the positive control. After incubation for 48 h, 10 µl MTT solution was added to each well to give a final concentration of 2 mg ml^−1. The plates were then incubated for further 4 h. After incubation, the MTT solution was removed and 150 µl DMSO was added to each well to solubilise the formed product. To ensure complete solubilisation, the plates were shaken vigorously for 10 min at room temperature. The optometric density (OD) was read on a microplate reader (ELx800, BioTek, Highland Park, Winooski, VT) at a wavelength of 492 nm and the data were subsequently analysed. The percentage of cell growth inhibition was calculated from the following equation: inhibitory rate (%) = [1–(ODtreated–ODblank)/(ODcontrol–ODblank)] × 100.
(§3) The MTT assay was performed using a standard protocol.

MGC803 = assay: MTT antiproliferative assay, MGC803 cells; assay type: cell-based, human; conditions: for IC50: MTT, 48 h, means ± SD, n = 3
Text: as §1, §2, §3

Bel7402 = assay: MTT antiproliferative assay, Bel7402 cells; assay type: cell-based, human; conditions: for IC50: MTT, 48 h, means ± SD, n = 3
Text: as §1, §2, §3

HCT116 = assay: MTT antiproliferative assay, HCT116 cells; assay type: cell-based, human; conditions: for IC50: MTT, 48 h, means ± SD, n = 3
Text: as §1, §2, §3

A549 = assay: MTT antiproliferative assay, A549 cells; assay type: cell-based, human; conditions: for IC50: MTT, 48 h, means ± SD, n = 3
Text: as §1, §2, §3

Hela = assay: MTT antiproliferative assay, HeLa cells; assay type: cell-based, human; conditions: MTT, 48 h, means ± SD, n = 3
Text: as §1, §2, §3

L02 = assay: MTT assay on normal cell line L02; assay type: cell-based; conditions: normal human liver cell line L02, MTT, 48 h
Protocol: as §2, with “5-Fluorouracil (5-FU) was used as the positive control.” left out
Lack of selective cytotoxicity is the main factor that restricts the dose of most conventional chemotherapeutic agents. […] Selectivity indexes between cancer cells and L-02 cells were calculated.

[1] = test system: AGS, MGC803, Bel7402, HCT116, A549, and HeLa; assay: MTT assay, overall statement on six tumour cell lines; assay type: cell-based, human; conditions: six cancer cell lines
Text: as §1, §2, §3

A549 cells = conditions: cited from earlier work

Row | Compound | IC50 (MGC803; Homo sapiens, MGC-803) | IC50 (Bel7402; Homo sapiens, Bel-7402) | IC50 (HCT116; Homo sapiens, HCT-116, 48 h) | IC50 (A549; Homo sapiens, A549) | IC50 (Hela; Homo sapiens, HeLa) | antiproliferative activities against the six tumour cell lines (in words) [1] | IC50 (AGS; Homo sapiens, AGS) | further results
1 | COc1ccc(C=C2C(=O)C34C(O)C2CCC3C23COC4(O)C(O)C2C(C)(C)CCC3O)c(OC)c1 [Compound 2l, (1S,4aR,5S,6S,6aR,9S,11aS,14R,E)-8-(2,4-dimethoxybenzylidene)-1,5,6,14-tetrahydroxy-4,4-dimethyldecahydro-1H-6,11b-(epoxymethano)-6a,9-methanocyclohe-pta[a]naphthalen-7(8H)-one] | 3.49 ± 0.44 µM | 2.41 ± 0.37 µM | 2.28 ± 0.54 µM | 5.12 ± 0.49 µM | 14.3 ± 2.04 µM | more potent antiproliferative activities in vitro than oridonin |  | Selectivity index AGS (AGS; IC50 on normal cells (L02)/IC50 on tumour cells (AGS)): 1.22; IC50 (AGS): 5.85 ± 1.55 µM; Selectivity index MGC803 (MGC803; IC50 on normal cells (L02)/IC50 on tumour cells (MGC803)): 2.05; Selectivity index Bel7402 (Bel7402; IC50 on normal cells (L02)/IC50 on tumour cells (Bel7402)): 2.97; Selectivity index HCT116 (HCT116; IC50 on normal cells (L02)/IC50 on tumour cells (HCT116)): 3.14; Selectivity index A549 (A549; IC50 on normal cells (L02)/IC50 on tumour cells (A549)): 1.40; IC50 (L02): 7.15 ± 1.36 µM
2 | CC1(C)CC[C@H](O)C23CO[C@](O)([C@@H](O)[C@H]12)[C@]12C(=O)/C(=C/c4ccc(N)cc4)[C@H](CC[C@@H]31)[C@H]2O [Compound 2s, (1S,4aR,5S,6S,6aR,9S,11aS,14R,E)-8-(4-aminobenzylidene)-1,5,6,14-tetrahydroxy-4,4-dimethyldecahydro-1H-6,11b-(epoxymethano)-6a,9-methanocyclohepta[a]-naphthalen-7(8H)-one] | 53.2 ± 4.05 µM | 7 ± 1.05 µM | 10 ± 1.13 µM | 99.8 ± 7.45 µM | > 100 µM | poor antiproliferative activities | 51 ± 3.34 µM | 
3 | CC(=O)Nc1ccc(/C=C2/C(=O)[C@]34[C@H](O)[C@H]2CC[C@H]3C23CO[C@]4(O)[C@@H](O)[C@@H]2C(C)(C)CC[C@@H]3O)cc1 [Compound 2t, N-(4-((E)-((1S,4aR,5S,6S,6aR,9S,11aS,14R)-1,5,6,14-tetrahydroxy-4,4-dimethyl-7-oxodecahydro-1H-6,11b-(epoxymethano)-6a,9-methanocyclohepta[a]naphthalen-8(7H)-ylidene)methyl)phenyl)acetamide] | 10 ± 0.84 µM | 14.6 ± 1.66 µM | 47.9 ± 3.91 µM | 97.1 ± 5.93 µM | > 100 µM | poor antiproliferative activities | 22.1 ± 1.04 µM | 
4 | CC1(C)CC[C@H](O)C23CO[C@](O)([C@@H](O)[C@H]12)[C@]12C(=O)/C(=C/c4ccc(NC(=O)c5ccccc5)cc4)[C@H](CC[C@@H]31)[C@H]2O [Compound 2u, N-(4-((E)-((1S,4aR,5S,6S,6aR,9S,11aS,14R)-1,5,6,14-tetrahydroxy-4,4-dimethyl-7-oxodecahydro-1H-6,11b-(epoxymethano)-6a,9-methanocyclohepta[a]naphthalen-8(7H)-ylidene)methyl)phenyl)benzamide] | 12.2 ± 0.94 µM | 7.35 ± 1.28 µM | 4.02 ± 0.33 µM | 21.5 ± 1.88 µM | 9.79 ± 1.08 µM |  | 12 ± 1.99 µM | 
5 | CC1(C)CC[C@H](O)C23CO[C@](O)([C@@H](O)[C@H]12)[C@]12C(=O)/C(=C/c4ccccc4O)[C@H](CC[C@@H]31)[C@H]2O [Compound 2v, (1S,4aR,5S,6S,6aR,9S,11aS,14R,E)-1,5,6,14-tetrahydroxy-8-(2-hydroxybenzylidene)-4,4-dimethyldecahydro-1H-6,11b-(epoxymethano)-6a,9-methanocyclohepta[a]naphthalen-7(8H)-one] | 32.9 ± 2.31 µM | 60.3 ± 4.14 µM | 28.2 ± 2.67 µM | > 100 µM | > 100 µM | poor antiproliferative activities | 30.3 ± 2.24 µM | 
6 | CC1(C)CC[C@H](O)C23CO[C@](O)([C@@H](O)[C@H]12)[C@]12C(=O)/C(=C/c4cccc(O)c4)[C@H](CC[C@@H]31)[C@H]2O [Compound 2w, (1S,4aR,5S,6S,6aR,9S,11aS,14R,E)-1,5,6,14-tetrahydroxy-8-(3-hydroxybenzylidene)-4,4-dimethyldecahydro-1H-6,11b-(epoxymethano)-6a,9-methanocyclohepta[a]naphthalen-7(8H)-one] | > 100 µM | > 100 µM | 22.1 ± 3.28 µM | > 100 µM | > 100 µM | poor antiproliferative activities | > 100 µM | 
7 | CC1(C)CC[C@H](O)C23CO[C@](O)([C@@H](O)[C@H]12)[C@]12C(=O)/C(=C/c4ccc(O)cc4)[C@H](CC[C@@H]31)[C@H]2O [Compound 2x, (1S,4aR,5S,6S,6aR,9S,11aS,14R,E)-1,5,6,14-tetrahydroxy-8-(4-hydroxybenzylidene)-4,4-dimethyldecahydro-1H-6,11b-(epoxymethano)-6a,9-methanocyclohepta[a]naphthalen-7(8H)-one] | > 100 µM | > 100 µM | 30.1 ± 3.57 µM | > 100 µM | > 100 µM | poor antiproliferative activities | > 100 µM | 
8 | CC1(C)CCC(O)C23COC(O)(C(O)C12)C12C(=O)C(=Cc4ccc5ccccc5c4)C(CCC31)C2O [Compound 2y, (1S,4aR,5S,6S,6aR,9S,11aS,14R,E)-1,5,6,14-tetrahydroxy-4,4-dimethyl-8-(napht-halen-2-ylmethylene)decahydro-1H-6,11b-(epoxymethano)-6a,9-methanocyclohepta[a]naphthalen-7(8H)-one] | 21 ± 1.24 µM | 51.2 ± 5.43 µM | 17.5 ± 1.44 µM | 12.6 ± 1.39 µM | 26 ± 1.48 µM |  | 55 ± 4.43 µM | 
9 | C/C1=C\[C@H]2OC(=O)/C(=C/c3ccc(Cl)cc3)[C@@H]2CC/C(C)=C/CC1 [Compound 3] |  |  |  |  |  |  |  | IC50 (A549 cells; A549 cells): 15.7 µM
10 | O=c1[nH]cc(F)c(=O)[nH]1 [Compound 5-FU, 5-Fluorouracil, reference compound] | 30.5 ± 4.42 µM | 21.3 ± 2.43 µM | 24.8 ± 2.08 µM | 23.7 ± 3.14 µM | 34.6 ± 3.14 µM |  | 29.6 ± 3.4 µM | 
11 | CCOc1cccc2c1OC(C(=O)/C=C/c1ccc(N(C)C)cc1)C2 (stereo not drawn) [Compound 5] |  |  |  |  |  |  |  | IC50 (A549 cells; A549): 9 µM
12 | C=C1C(=O)O[C@@H]2/C=C(\C)CC/C=C(\C)CC[C@@H]12 [Costunolide] |  |  |  |  |  |  |  | IC50 (A549 cells; A549 cells): 39.8 µM
13 | (1S,4aR,5S,6S,6aR,9S,11aS,14R,E)-8-(4-(((Z)-3,6-dimethylhepta-2,5-dien1yl)oxy)benzylidene)-1,5,6,14-tetrahydroxy-4,4-dimethyldecahydro-1H-6,11b-(epoxymethano)-6a,9-methanocyclohepta[a]naphthalen-7(8H)-one [Compound 2r] |  |  |  |  |  |  |  | IC50 (AGS): 13.7 ± 2.63 µM; IC50 (MGC803): 6.86 ± 1.24 µM; IC50 (Bel7402): 8.45 ± 1.32 µM; IC50 (HCT116): 2.39 ± 0.19 µM; IC50 (A549): 4.16 ± 0.45 µM; IC50 (Hela): 9.85 ± 2.03 µM
